Structures are written as SMILES. Where two headings read alike, the source gives them in different places.

One test has as its target T1, Human 5-HT1B receptor (Homo sapiens, UniProt P28222).
T1 construct: host or cells: CHO-K1 (hamster), stably transfected; cAMP Hunter cell line
The test can be described thus: Hit Hunter cAMP secondary messenger assay, Gi agonist mode. Conditions: for Curve Top (% activation) / Emax: relative to 5-HT MAX control. It is filed as cell-based.

Test [1] deals with mice. The settings on record: cited from earlier work.
Another test deals with rats. Conditions: cited from earlier work.
The next test concerns humans. Conditions: cited from earlier work.
The test system of test [2] is mice. The settings on record: cited from earlier work. The source holds these as a separate data set.
Test [3] concerns female mice exposed to stress and sodium nitroprusside (SNP). The test can be described thus: Stress plus sodium nitroprusside (SNP)-induced migraine mice model, von Frey facial withdrawal score. The class given is in vivo, C57BL/6j mice. The procedure: To evaluate the prophylactic and acute/abortive treatment effects of single administration of 5-OH-DMT to female mice exposed to stress and sodium nitroprusside (SNP) as a model of stress-primed migraine pain.
C57BL/6j mice (7-8 weeks, female) were acclimated for 1 week prior to the experiment. Mice were kept in groups of 4-5 animals per cage in a housing room with temperature maintained at 21-23° C. and 40-70% relative humidity, on a 12/12 h light:dark cycle. Chow and water were available ad libitum except during testing. […] On Day 10, von Frey testing was conducted again to confirm that mechanical withdrawal scores were similar across naïve and stress-exposed mice. Stress-exposed animals were randomized to treatment groups based on body weight and facial mechanical withdrawal score. Then, each animal was administered a 1st intraperitoneal (i.p.) injection of 5-OH-DMT (dissolved in 0.9% sterile saline and administered at 3, 10 or 30 mg/kg in a volume of 10 ml/kg) or vehicle.
On Day 11, at 24 h following the 1st injection, vehicle or 0.1 mg/kg sodium nitroprusside (SNP) was given i.p. and facial mechanical withdrawal scores were assessed 3 hours later to confirm establishment of a stress+SNP-induced hypersensitive state in Day 10 vehicle-treated animals (Groups 2-6) or, in Day 10 test article-treated […] (Groups 7-9), assess the prophylactic effect of compound administration. On Day 12, at 23 hours after vehicle or SNP injection, each animal was administered a 2nd i.p. injection of vehicle or 5-OH-DMT or sumatriptan (acute treatment positive control animals received vehicle on Day 10). One hour later, facial withdrawal scores were assessed to evaluate acute effects of treatments (Groups 2-6) or durability of prophylactic effects (Groups 7-9).
Mice were allowed to acclimate to the testing cage for 60 minutes each day before the test. To assess pain-like behaviors induced by noxious mechanical stimulation applied on the vibrissal pad (orofacial area), the mouse was placed in a small cage with a metal mesh ceiling and a wood bottom (10 cm×5 cm×5 cm). The semiparametric scoring system used to evaluate the response of the animal to the mechanical stimulation was described in detail by Vos et al. (1994). Mechanical stimulation delivered by a von Frey hair with the bending force of 0.07 g was applied bilaterally to the vibrissal pad. […] The summated score of these 8 trials was counted as the animal's response score. […]

T1 sequence (P28222 whole entry): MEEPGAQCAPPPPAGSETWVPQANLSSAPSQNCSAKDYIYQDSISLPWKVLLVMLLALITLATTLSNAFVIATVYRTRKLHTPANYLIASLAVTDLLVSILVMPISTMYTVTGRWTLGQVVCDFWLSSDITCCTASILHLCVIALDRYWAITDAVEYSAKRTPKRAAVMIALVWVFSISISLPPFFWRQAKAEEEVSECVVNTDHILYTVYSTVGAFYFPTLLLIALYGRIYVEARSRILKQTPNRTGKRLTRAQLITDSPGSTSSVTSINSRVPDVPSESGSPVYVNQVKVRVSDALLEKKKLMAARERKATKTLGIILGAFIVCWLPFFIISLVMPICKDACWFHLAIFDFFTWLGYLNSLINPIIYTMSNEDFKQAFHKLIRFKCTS
Excerpt for Human 5-HT1B receptor: Methods: cAMP Secondary Messenger Pathway Assay Method.
Hit Hunter® cAMP assays were used to monitor the activation of a GPCR via Gi and Gs secondary messenger signaling in a homogenous, non-imaging assay format using DiscoverX's Enzyme Fragment Complementation (EFC) with β-galactosidase (β-Gal) as the functional reporter. The enzyme is split into two complementary portions: EA for Enzyme Acceptor and ED for Enzyme Donor. ED is fused to cAMP and in the assay competes with cAMP generated by cells for binding to a cAMP-specific antibody. Active β-Gal is formed by complementation of exogenous EA to any unbound EDcAMP.
cAMP Hunter cell lines were expanded from freezer stocks according to standard procedures. Human 5-HT1B receptor-mediated cAMP signaling was evaluated in stably transfected hamster-derived CHO-K1 cells. Cells were seeded in a total volume of 20 μL into white walled, 384-well microplates and incubated at 37° C. overnight. cAMP modulation was determined using the DiscoverX HitHunter cAMP XS+ assay.
For Gi agonist determination, cells were incubated with sample in the presence of 15 mM forskolin to induce response. Media was aspirated from cells and replaced with 10 μL HBSS/10 mM Hepes. Intermediate dilution of sample stocks was performed to generate 4× sample in assay buffer. 5 μL of 4× sample plus 5 μL of 4× forskolin was added to cells and incubated at 37° C. for 30 minutes. Final assay vehicle concentration was 1%. After compound incubation, assay signal was generated through incubation with 20 μL cAMP XS+ED/CL lysis cocktail for one hour followed by incubation with 20 μL cAMP XS+EA reagent for three hours at room temperature. Microplates were read following signal generation with a PerkinElmer Envision™ instrument for chemiluminescent signal detection.
Compound activity was analyzed using CBIS data analysis suite (ChemInnovation, CA). For Gi agonist mode assays, percentage activity is calculated using the following formula: % Activity=100%×(1−(mean RLU of test sample−mean RLU of MAX control)/(mean RLU of vehicle control−mean RLU of MAX control)).
The same human 5-HT1B receptor functional agonism assay as described above was used in a separate experiment.

Turning to `NCCc1c[nH]c2ccc(O)cc12` [5-HT, serotonin, reference compound], the “Curve Top (% activation)” value on Human 5-HT1B receptor (Study #1) is recorded as 100.22%; on Human 5-HT1B receptor (Study #2), 107.54%. Moreover, the “agonist activity at human 5-HT1B receptors” value at Human 5-HT1B receptor (first experiment (Study #1)) and on Human 5-HT1B receptor (second experiment (Study #2)) was “full agonist activity” throughout.
Consider `COc1ccc2[nH]cc(CCN(C)C)c2c1` [5-MeO-DMT, 5-methoxy-N,N-dimethyltryptamine], for which the “head twitch response in mice” value in the test with mice [1] (indicative of in vivo 5-HT2A receptor activation) is “induces the head twitch response”. Besides, the “dose eliciting mouse head-twitch response” value in the test with mice [1] (mice, i.p. or s.c.) is listed as no less than 10 mg/kg. The acute analgesic effects result in the test with rats was “exhibited acute analgesic effects”. The “time of initial effects” value in the test with humans (insufflation of 10 mg) is 3 to 4 min. Also, the “time of termination of effects” value with humans (insufflation of 10 mg) was 60 to 70 min. In addition, the “dose range with psychoactive effects” value in the test with humans (intravenous) was 0.25 to 3.1 mg; in the test with humans (smoked) it was 6 to 30 mg. For the same molecule, the “dose with psychoactive effects” value was 10 to 25 mg in the test with humans (oral, after pretreatment with a monoamine oxidase inhibitor (e.g., harmaline)); 30 mg in the test with humans (oral, encapsulated); roughly 10 mg with humans (sublingual).
The EC50 is the concentration giving half of the maximal effect. Lower therefore signals an effect from little substance. Take `CN(C)CCc1c[nH]c2ccc(O)cc12` [5-OH-DMT, 5-hydroxy-N,N-dimethyltryptamine]: the “head twitch response ED50” value in the test with mice [1] (mice, subcutaneous) is given as 15 mg/kg. Besides, in the test on humans (insufflation of 40 mg), the “duration of short-lived aftereffects” value is on record as “up to 90 minutes”. Also, in the test on humans (insufflation of 40 mg), the “time of initial effects” value was 5 min. For the same molecule, in the test with mice [2], the “acute anti-inflammatory and analgesic effects” value is “exhibited acute anti-inflammatory and analgesic effects”. Also, the “facial hypersensitivity vs vehicle (G2), prophylactic treatment” value in test [3] (30 mg/kg i.p. on Day 10, 24 h before SNP, tested Day 11, 3 h after SNP (G9)) was “significantly reduced facial hypersensitivity”. The “facial hypersensitivity vs vehicle (G2), durability of prophylactic effect” value in test [3] (30 mg/kg i.p. on Day 10, tested Day 12 (G9)) is reported as “significantly reduced facial hypersensitivity”. Moreover, the “facial hypersensitivity vs vehicle (G2), acute treatment” value in test [3] (30 mg/kg i.p. on Day 12, tested 1 h after injection #2 (G6)) was “significantly reduced facial hypersensitivity”. The molecule also displayed an EC50 at Human 5-HT1B receptor of no more than 1 nM. Besides, the Emax was 104% at Human 5-HT1B receptor (Study #1, read-out: Maximal activation (%)) and 96.7% on Human 5-HT1B receptor (read-out: Maximal activation (%), Study #2). Moreover, at Human 5-HT1B receptor (Study #2), the “Curve Top (% activation)” value was 100.41%. In addition, the “agonist activity at human 5-HT1B receptors” value on Human 5-HT1B receptor (first experiment (Study #1)) and on Human 5-HT1B receptor (second experiment (Study #2)) was “full agonist activity” each time.
Consider `CNS(=O)(=O)Cc1ccc2[nH]cc(CCN(C)C)c2c1` [sumatriptan, reference compound], for which, in test [3] (sumatriptan 1 mg/kg i.p. on Day 12, tested 1 h after injection #2 (G3)), the “facial hypersensitivity vs vehicle (G2), acute treatment” value was “significantly reduced facial hypersensitivity”.

The values above are taken from patent US20230310374A1, “COMPOSITIONS AND METHODS FOR TREATING HEADACHE OR FACIAL PAIN” (priority 2021, published 2023).
